# Measured values from patent US9051333B2, “6,7-dihydroimidazo [2,1-b] [1,3]oxazine bactericides” (OTSUKA PHARMACEUTICAL CO., LTD., priority 2011, dated 2015).
# Test system: Mycobacterium tuberculosis (M. tuberculosis H37Rv)
# Assay: Antimicrobial Assay (Agar Plate Dilution Method), M. tuberculosis H37Rv
# Format: cell-based
# Settings: 336 h, 7H11 agar medium, cultured at 37° C. for 14 days, read-out: minimum inhibitory concentration
row,Compound,MIC [ng/mL]
1,"O=[N+]([O-])c1cn2c(n1)O[C@@H](COc1ccc(N3CCC(Cc4ccc(Oc5ccc(OC(F)(F)F)cc5)cc4)CC3)cc1)CC2 [Example 228, (R)-2-nitro-7-(4-{4-[4-(4-trifluoromethoxyphenoxy)benzyl]piperidin-1-yl}phenoxymethyl)-6,7-dihydro-5H-imidazo[2,1-b][1,3]oxazine]",≤ 0.4

# Test system: Mycobacterium tuberculosis (M. tuberculosis kurono)
# Assay: Antimicrobial Assay (Agar Plate Dilution Method), M. tuberculosis kurono
# Format: cell-based
# Settings: 336 h, M. tuberculosis kurono, 7H11 agar medium, cultured at 37° C. for 14 days, read-out: Minimum Inhibitory Concentration
row,Compound,MIC [ng/mL]
1,"O=[N+]([O-])c1cn2c(n1)O[C@@H](COc1ccc(N3CCC(Cc4ccc(Oc5ccc(OC(F)(F)F)cc5)cc4)CC3)cc1)CC2 [Example 228, (R)-2-nitro-7-(4-{4-[4-(4-trifluoromethoxyphenoxy)benzyl]piperidin-1-yl}phenoxymethyl)-6,7-dihydro-5H-imidazo[2,1-b][1,3]oxazine]",0.8
2,"O=[N+]([O-])c1cn2c(n1)O[C@@H](COc1ccc(N3CCN(CC4CCC(C(F)(F)F)CC4)CC3)cc1)CC2 (stereo partly drawn) [Example 414, (R)-2-nitro-7-{4-[4-(4-trifluoromethyl-cyclohexylmethyl)piperazin-1-yl]phenoxymethyl}-6,7-dihydro-5H-imidazo[2,1-b][1,3]oxazine]",6
3,"O=[N+]([O-])c1cn2c(n1)O[C@@H](COc1ccc(N3CCC(C4CCN(Cc5ccc(C(F)(F)F)cc5)CC4)CC3)cc1)CC2 [Example 415, (R)-2-nitro-7-{4-[1′-(4-trifluoromethylbenzyl)-4,4′-bipiperidin-1-yl]phenoxymethyl}-6,7-dihydro-5H-imidazo[2,1-b][1,3]oxazine]",1.5
4,"O=[N+]([O-])c1cn2c(n1)O[C@@H](COc1ccc(N3CCC(Oc4ccc(SC(F)(F)F)cc4)CC3)cc1)CC2 [Example 446, (R)-2-nitro-7-{4-[4-(4-trifluoromethylsulfanylphenoxy)piperidin-1-yl]phenoxymethyl}-6,7-dihydro-5H-imidazo[2,1-b][1,3]oxazine]",3
5,"COC1(c2ccc(C(F)(F)F)cc2)CCN(c2ccc(OC[C@H]3CCn4cc([N+](=O)[O-])nc4O3)cc2)CC1 [Example 471, (R)-7-{4-[4-methoxy-4-(4-trifluoromethylphenyl)piperidin-1-yl]phenoxymethyl}-2-nitro-6,7-dihydro-5H-imidazo[2,1-b][1,3]oxazine]",12
6,"CC(C)(c1ccc(OCc2ccc(C(F)(F)F)cc2)cc1)N1CCN(c2ccc(OC[C@H]3CCn4cc([N+](=O)[O-])nc4O3)cc2)CC1 [Example 490, (R)-7-[4-(4-{1-methyl-1-[4-(4-trifluoromethylbenzyloxy)phenyl]ethyl}piperazin-1-yl)phenoxymethyl]-2-nitro-6,7-dihydro-5H-imidazo[2,1-b][1,3]oxazine]",0.8
